Measured values reported in the supplement of paper PMC10307832.

Experiments:
Assay in all cases: relative viability (nuclei count vs DMSO), 5 days (fraction); higher = more cells survive
NCI-H1651 = test system: NCI-H1651
Procedure, shortened: (§1)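 Relative viability was taken as the ratio of nuclei in treated wells to nuclei in vehicle wells. Lung cancer cell lines in 1536-well plates received compounds by pin tool one day after seeding, either one drug alone or a fixed anchor-drug dose plus five library-drug doses (not always all listed) in √10 steps. Nuclei were counted on 4× images after 5 days of treatment, and values are medians of duplicate plates.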

NCI-H1944 = test system: NCI-H1944
Procedure, shortened: as §1

NCI-H1648 = test system: NCI-H1648
Procedure, shortened: as §1

NCI-H650 = test system: NCI-H650
Procedure, shortened: as §1

NCI-H520 = test system: NCI-H520
Procedure, shortened: as §1

RERF-LC-KJ = test system: RERF-LC-KJ
Procedure, shortened: as §1

NCI-H838 = test system: NCI-H838
Procedure, shortened: as §1

A549 = test system: A549
Procedure, shortened: as §1

IA-LM = test system: IA-LM
Procedure, shortened: as §1

Row | SMILES | relative viability (NCI-H1651; first compound 0.08 µM) | relative viability (NCI-H1651; first compound 0.253 µM) | relative viability (NCI-H1651; first compound 0.8 µM) | relative viability (NCI-H1651; first compound 2.53 µM) | relative viability (NCI-H1944; first compound 0.08 µM) | relative viability (NCI-H1944; first compound 0.253 µM) | relative viability (NCI-H1944; first compound 0.8 µM) | relative viability (NCI-H1944; first compound 2.53 µM) | relative viability (NCI-H1648; first compound 0.08 µM) | relative viability (NCI-H1648; first compound 0.253 µM) | relative viability (NCI-H1648; first compound 0.8 µM) | relative viability (NCI-H1648; first compound 2.53 µM) | relative viability (NCI-H650; first compound 0.08 µM) | relative viability (NCI-H650; first compound 0.253 µM) | relative viability (NCI-H650; first compound 0.8 µM) | relative viability (NCI-H650; first compound 2.53 µM) | relative viability (NCI-H520; first compound 0.08 µM) | relative viability (NCI-H520; first compound 0.253 µM) | relative viability (NCI-H520; first compound 0.8 µM) | relative viability (NCI-H520; first compound 2.53 µM) | relative viability (RERF-LC-KJ; first compound 0.08 µM) | relative viability (RERF-LC-KJ; first compound 0.253 µM) | relative viability (RERF-LC-KJ; first compound 0.8 µM) | relative viability (RERF-LC-KJ; first compound 2.53 µM) | relative viability (NCI-H838; first compound 0.08 µM) | relative viability (NCI-H838; first compound 0.253 µM) | relative viability (NCI-H838; first compound 0.8 µM) | relative viability (NCI-H838; first compound 2.53 µM) | relative viability (A549; first compound 0.08 µM) | relative viability (A549; first compound 0.253 µM) | relative viability (A549; first compound 0.8 µM) | relative viability (A549; first compound 2.53 µM) | relative viability (IA-LM; first compound 0.08 µM) | relative viability (IA-LM; first compound 0.253 µM) | relative viability (IA-LM; first compound 0.8 µM) | relative viability (IA-LM; first compound 2.53 µM)
1 | COc1nc(C)cnc1NS(=O)(=O)c1cccnc1-c1ccc(-c2nnco2)cc1 [Zibotentan] + CC(=O)c1c(C)c2cnc(Nc3ccc(N4CCNCC4)cn3)nc2n(C2CCCC2)c1=O [Palbociclib] (partner 0.5 µM) | 0.521 | 0.522 | 0.48 | 0.492 | 0.366 | 0.301 | 0.333 | 0.39 | 0.274 | 0.276 | 0.312 | 0.259 | 0.339 | 0.371 | 0.351 | 0.355 | 0.219 | 0.208 | 0.208 | 0.248 | 1.1 | 0.999 | 1.08 | 1.14 | 0.227 | 0.207 | 0.191 | 0.233 |  |  |  |  |  |  |  | 
2 | COc1nc(C)cnc1NS(=O)(=O)c1cccnc1-c1ccc(-c2nnco2)cc1 [Zibotentan] + Nc1nc2[nH]cc(CCc3ccc(C(=O)N[C@@H](CCC(=O)O)C(=O)O)cc3)c2c(=O)[nH]1 [Pemetrexed] (partner 0.2 µM) | 0.594 | 0.581 | 0.578 | 0.539 | 0.769 | 0.584 | 0.61 | 0.732 | 0.791 | 0.686 | 0.532 | 0.635 | 0.947 | 0.927 | 0.905 | 0.977 | 0.626 | 0.665 | 0.682 | 0.695 | 0.5 | 0.464 | 0.438 | 0.481 | 0.249 | 0.234 | 0.23 | 0.252 |  |  |  |  |  |  |  | 
3 | COc1nc(C)cnc1NS(=O)(=O)c1cccnc1-c1ccc(-c2nnco2)cc1 [Zibotentan] + Nc1ncn([C@H]2C[C@H](O)[C@@H](CO)O2)c(=O)n1 [Decitabine] (partner 2 µM) | 0.657 | 0.607 | 0.567 | 0.516 | 0.433 | 0.431 | 0.425 | 0.426 | 0.544 | 0.464 | 0.519 | 0.461 | 0.298 | 0.297 | 0.352 | 0.311 | 0.62 | 0.441 | 0.514 | 0.575 | 0.699 | 0.558 | 0.708 | 0.634 | 0.455 | 0.414 | 0.545 | 0.461 | 0.232 | 0.266 | 0.305 | 0.285 |  |  |  | 
4 | COc1nc(C)cnc1NS(=O)(=O)c1cccnc1-c1ccc(-c2nnco2)cc1 [Zibotentan] + O=C(CCCCCCC(=O)Nc1ccccc1)NO [Vorinostat] (partner 1 µM) | 0.543 | 0.492 | 0.559 | 0.461 | 0.674 | 0.533 | 0.508 | 0.631 | 0.574 | 0.331 | 0.54 | 0.483 | 0.53 | 0.403 | 0.625 | 0.536 | 0.778 | 0.799 | 0.794 | 0.711 | 0.847 | 0.541 | 0.74 | 0.679 | 0.762 | 0.716 | 0.757 | 0.771 |  |  |  |  | 0.881 | 0.981 | 0.9 | 0.939
